Experimental data from patent publication US10906913B2, “NMDA receptor modulators and uses thereof” (Northwestern University, priority 2008, dated 2021).
“Also recorded” adds a separate entry of the source. Where two headings read alike, the source gives them in different places. Values belong to the compound of their own block, whether it stands above or below them. Peptide text beside a SMILES is read from it.

What was measured:
[1] = target: Glutamate, NMDA, Polyamine (Rattus norvegicus, UniProt P35439+Q00960); assay: Binding assay, Glutamate, NMDA, Polyamine
Chain of Glutamate, NMDA, Polyamine (Q00960 27-1482, other chains not shown): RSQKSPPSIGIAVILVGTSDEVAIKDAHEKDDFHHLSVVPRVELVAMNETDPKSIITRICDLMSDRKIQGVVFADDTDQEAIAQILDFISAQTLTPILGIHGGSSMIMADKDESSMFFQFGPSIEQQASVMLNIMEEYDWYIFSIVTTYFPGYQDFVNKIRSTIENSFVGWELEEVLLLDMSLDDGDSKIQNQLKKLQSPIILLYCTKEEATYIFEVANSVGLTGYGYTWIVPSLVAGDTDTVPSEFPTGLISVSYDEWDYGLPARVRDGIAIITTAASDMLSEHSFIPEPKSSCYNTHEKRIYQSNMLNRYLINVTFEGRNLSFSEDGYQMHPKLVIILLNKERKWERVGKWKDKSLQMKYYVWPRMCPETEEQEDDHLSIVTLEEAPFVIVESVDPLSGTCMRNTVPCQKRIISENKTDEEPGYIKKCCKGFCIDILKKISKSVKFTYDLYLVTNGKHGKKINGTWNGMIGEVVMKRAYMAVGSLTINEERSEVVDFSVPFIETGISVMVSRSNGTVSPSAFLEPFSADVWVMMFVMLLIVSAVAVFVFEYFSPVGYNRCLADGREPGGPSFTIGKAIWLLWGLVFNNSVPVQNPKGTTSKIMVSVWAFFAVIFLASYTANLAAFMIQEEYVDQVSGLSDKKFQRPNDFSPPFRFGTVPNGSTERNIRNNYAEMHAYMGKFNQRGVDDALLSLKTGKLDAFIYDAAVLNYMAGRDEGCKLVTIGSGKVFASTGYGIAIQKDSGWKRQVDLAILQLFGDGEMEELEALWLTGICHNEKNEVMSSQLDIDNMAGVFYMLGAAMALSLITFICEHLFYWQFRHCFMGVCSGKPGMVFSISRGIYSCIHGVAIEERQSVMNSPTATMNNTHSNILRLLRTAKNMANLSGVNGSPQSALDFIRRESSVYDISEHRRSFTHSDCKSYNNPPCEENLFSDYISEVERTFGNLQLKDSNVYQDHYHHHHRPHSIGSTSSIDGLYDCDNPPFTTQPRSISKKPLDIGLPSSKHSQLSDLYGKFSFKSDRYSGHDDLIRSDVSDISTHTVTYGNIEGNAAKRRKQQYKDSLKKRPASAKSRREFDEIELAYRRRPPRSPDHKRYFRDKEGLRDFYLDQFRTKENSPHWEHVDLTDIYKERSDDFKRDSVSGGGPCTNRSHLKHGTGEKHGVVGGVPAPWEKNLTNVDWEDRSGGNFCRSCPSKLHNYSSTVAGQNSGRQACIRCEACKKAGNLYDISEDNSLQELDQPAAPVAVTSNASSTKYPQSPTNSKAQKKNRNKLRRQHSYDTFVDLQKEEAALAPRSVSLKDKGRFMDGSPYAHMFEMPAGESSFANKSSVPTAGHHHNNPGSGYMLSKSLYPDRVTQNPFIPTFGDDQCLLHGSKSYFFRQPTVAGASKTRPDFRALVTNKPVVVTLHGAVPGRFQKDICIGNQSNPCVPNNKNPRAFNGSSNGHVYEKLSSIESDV
Text: (§1) Table B depicts the results of binding assays against various targets with AK51: […]

[2] = test system: Glutamate, Non-Selective; assay: Binding assay, Glutamate, Non-Selective; parameters: species or system rat; conditions: 10 μM
Text: as §1

[3] = target: T1, NMDA receptor (Rattus norvegicus, UniProt P35439); assay: NMDA receptor-gated single neuron conductance (INMDA) in hippocampal CA1 pyramidal neurons; assay type: cell-based; conditions: for enhancement of INMDA compared among the tested compounds: comparison of compound B, AK-51, AK-52
T1 construct: NMDA receptor-gated single neuron conductance (INMDA) in hippocampal CAI pyramidal neurons; from tissue; host or cells: in vitro hippocampal slices, CA1 pyramidal neurons
Text: (§2) The effects of the three compounds were examined on 1) NMDA receptor-gated single neuron conductance (INMDA) in hippocampal CAI pyramidal neurons and 2) the magnitude of long-term potentiation (LTP) and long term depression (LTD) at Schaffer collateral CA1 synapses, in in vitro hippocampal slices.

[4] = test system: Glycine, Strychnine-Sensitive; assay: Binding assay, Glycine, Strychnine-Sensitive; parameters: species or system rat; conditions: 10 μM
Text: as §1

[5] = test system: Glutamate, AMPA; assay: Binding assay, Glutamate, AMPA; parameters: species or system rat; conditions: 10 μM
Text: as §1

[6] = test system: Schaffer collateral-CA1 synapses; assay: Long term depression (LTD) at Schaffer collateral-CA1 synapses, in vitro hippocampal slices; assay type: cell-based; conditions: 1 μM; low frequency stimulus 2 Hz/10 min
Text: as §2

[7] = target: Glutamate, NMDA, Phencyclidine (Rattus norvegicus, UniProt P35439); assay: Binding assay, Glutamate, NMDA, Phencyclidine
Text: as §1

[8] = test system: Glutamate, NMDA, Agonism; assay: Binding assay, Glutamate, NMDA, Agonism; parameters: species or system rat; conditions: 10 μM
Text: as §1

[9] = test system: Glutamate, Kainate; assay: Binding assay, Glutamate, Kainate; parameters: species or system rat; conditions: 10 μM
Text: as §1

[10] = test system: Schaffer collateral-CA1 synapses; assay: Long-term potentiation (LTP) at Schaffer collateral-CA1 synapses, in vitro hippocampal slices; assay type: cell-based; conditions: for magnitude of LTP: high frequency stimulus; for magnitude / induction of LTP: concentration not given
Text: as §2

[11] = target: Glutamate, NMDA, Glycine (Rattus norvegicus, UniProt P35439); assay: Binding assay, Glutamate, NMDA, Glycine
Text: as §1

[12] = target: Glutamate, Metabotropic, mGlus (Homo sapiens, UniProt P41594); assay: Binding assay, Glutamate, Metabotropic, mGlus
Chain of Glutamate, Metabotropic, mGlus (P41594 21-1212): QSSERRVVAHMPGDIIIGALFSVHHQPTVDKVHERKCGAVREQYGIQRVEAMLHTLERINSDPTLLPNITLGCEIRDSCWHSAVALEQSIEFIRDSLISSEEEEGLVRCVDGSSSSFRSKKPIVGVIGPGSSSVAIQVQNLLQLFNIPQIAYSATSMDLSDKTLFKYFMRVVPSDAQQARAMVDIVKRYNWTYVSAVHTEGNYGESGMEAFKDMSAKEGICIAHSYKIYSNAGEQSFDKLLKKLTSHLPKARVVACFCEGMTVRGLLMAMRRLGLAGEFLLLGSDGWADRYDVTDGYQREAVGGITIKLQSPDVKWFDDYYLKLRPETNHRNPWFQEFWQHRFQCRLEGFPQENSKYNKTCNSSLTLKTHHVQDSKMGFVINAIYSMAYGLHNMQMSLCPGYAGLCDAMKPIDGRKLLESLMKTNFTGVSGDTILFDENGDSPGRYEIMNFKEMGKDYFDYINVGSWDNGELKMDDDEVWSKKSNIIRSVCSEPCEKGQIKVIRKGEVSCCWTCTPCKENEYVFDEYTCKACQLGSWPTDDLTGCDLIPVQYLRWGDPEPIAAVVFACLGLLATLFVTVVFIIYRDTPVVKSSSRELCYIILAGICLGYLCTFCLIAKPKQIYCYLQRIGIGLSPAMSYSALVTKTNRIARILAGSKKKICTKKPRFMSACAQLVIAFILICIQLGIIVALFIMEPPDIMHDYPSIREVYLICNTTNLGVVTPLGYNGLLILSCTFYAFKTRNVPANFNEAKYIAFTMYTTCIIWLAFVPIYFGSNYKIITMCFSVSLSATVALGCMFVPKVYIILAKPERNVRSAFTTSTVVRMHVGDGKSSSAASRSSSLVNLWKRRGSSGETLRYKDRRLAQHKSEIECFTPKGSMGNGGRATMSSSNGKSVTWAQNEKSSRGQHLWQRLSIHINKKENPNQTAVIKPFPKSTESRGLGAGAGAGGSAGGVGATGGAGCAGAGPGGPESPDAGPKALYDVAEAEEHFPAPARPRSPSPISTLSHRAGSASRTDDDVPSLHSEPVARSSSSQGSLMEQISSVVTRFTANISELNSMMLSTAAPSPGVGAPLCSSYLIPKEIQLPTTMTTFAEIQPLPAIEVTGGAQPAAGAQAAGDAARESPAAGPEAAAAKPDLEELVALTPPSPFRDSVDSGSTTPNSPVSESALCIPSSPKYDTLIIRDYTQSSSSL
Text: as §1

[13] = test system: rats; assay: Alternating T-maze learning task; assay type: in vivo, rat; conditions: 60 min before testing
Method: Male 3 month old Fisher 344 X Brown Norway F1 cross rats (FBNF1) were used for this study. The t-maze was constructed with arms (45 cm long×10 cm wide×10 cm high) made of black Plexiglas enclosing the maze. Two plastic bottle caps, lined with wire mesh, were secured to the end of each goal arm in which the food reward (Cheerios, 100 mg/piece) was placed. Before the start of training, animals were gradually deprived of food to approximately 85% of their free feeding weight. On three successive days before the start of training, animals were habituated to the t-maze with food located throughout the maze. […] On the subsequent testing day, animals were given injections of AK51 (0.3, 1, 3, 10, 30 mg/kg p.o.), or DMSO vehicle (1 mg/ml; Sigma, Saint Louis Mo.) in a blind manner via gastric gavage (4″, 16-ga; Braintree Scientific, Braintree Mass.) 60 min prior to the start of testing (n=8-9 per group. On the first trial of testing, both arms were baited with food and for the subsequent 20 trials only alternating choices (opposite of the animal's previous choice) were rewarded (˜30 sec inter-trial interval). The number of trials to criterion (5 consecutive correct choices) was calculated for each animal. Data was analyzed by ANOVA followed by Fisher PLSD post hoc tests comparing individual drug doses to vehicle (α=0.05). […]

[14] = test system: Schaffer collateral-CA1 synapses; conditions: cited from earlier work
[15] = test system: Schaffer collateral-CA1 synapses; conditions: cited from earlier work; remark: listed apart in the source
[16] = target: T1, NMDA receptor; conditions: cited from earlier work

inhibition at 10 µM [1]: -14%
% Inhibition [2]: −10%
NMDA current (normalized pharmacologically-isolated NMDA receptor-gated current) ([3]; 100 nM and 1 μM, 20 min bath application, whole-cell recording): enhances
single shock evoked INMDA ([3]; 1 μM): enhancement
single shock evoked INMDA ([3]; 1 μM, listed as NRX-10,051): enhanced
% Inhibition [4]: 4%
% Inhibition [5]: −8%
inhibition at 10 µM [7]: -5%
% Inhibition [8]: 27%
% Inhibition [9]: −13%
inhibition at 10 µM [11]: -6%
inhibition at 10 µM [12]: -7%
SMILES: O=C1NCC12CCCN2 (stereo not drawn) [AK-51]
single shock evoked INMDA ([3]; 100 nM, listed as NRX-10,051): enhanced; also recorded: marked enhancement
enhancement of INMDA compared among the tested compounds [3]: less potency than compound B; also recorded: smaller in magnitude
LTD [6]: not altering
magnitude of LTP ([10]; 100 nM): Enhancement
magnitude of LTP ([10]; 1 μM, listed as AK5151): Enhancement
magnitude of LTP ([10]; 1 μM, listed as NRX-10,051): doubled the magnitude
magnitude / induction of LTP [10]: enhances
learning behavior in the T-maze test ([13]; 1.0 mg/kg by mouth, P<0.001): statistically significant enhancement
learning behavior in the T-maze test ([13]; 3.0 mg/kg by mouth, P<0.01): statistically significant enhancement

single shock evoked INMDA ([3]; 100 nM): mild enhancement
single shock evoked INMDA ([3]; 100 nM, listed as AK52): enhancement
single shock evoked INMDA ([3]; 1 μM): significant reduction
single shock evoked INMDA ([3]; 1 μM, listed as AK52): marked reduction
enhancement of INMDA compared among the tested compounds [3]: weakest enhancer
SMILES: CC(O)C(NC(=O)OCc1ccccc1)C(=O)N1CC2(CCCN2C(=O)OCc2ccccc2)C1=O (stereo not drawn) [AK-52]
LTD [6]: without altering; also recorded: did not affect
magnitude of LTP ([10]; 100 nM): enhancement
magnitude of LTP ([10]; 1 μM): slight, but significant, reduction
magnitude / induction of LTP [10]: selectively enhances

SMILES: C[C@@H](O)[C@H](N)C(=O)N1CCC[C@H]1C(=O)N1CCC[C@H]1C(=O)N[C@H](C(N)=O)[C@@H](C)O [GLYX-13] (H-TPPT-NH2)
LTP ([14]; 100 μM): reducing
LTP ([14]; 1-10 μM): enhancement
simultaneous effect on LTP and LTD [14]: simultaneously increase LTP and reduce LTD
LTD ([15]; 100 μM): no longer affected
LTD ([15]; 1-10 μM): reducing
burst INMDA ([16]; 100 μM): reducing
burst-activated INMDA ([16]; 1-10 μM): enhancement
single pulse evoked INMDA ([16]; 1-10 μM): reducing
INMDA mediated by NMDA receptors containing NR2A/B subunits [16]: selectively enhance
